Reference: the NIST ThermoML archive (doi:10.1021/je800633a)
Numbers after ± are expanded uncertainties.

Legend:
[1] = refractive index (Na D-line) (dimensionless); details: 298.15 K; 101.33 kPa; Liquid; Standard Abbe refractometry
[2] = 81.5 kPa, Liquid; for viscosity: Capillary tube (Ostwald / Ubbelohde) method
[3] = refractive index (Na D-line) (dimensionless); xn = mol fraction of the nth substance listed; details: 303.15 K, 81.5 kPa, Liquid
[4] = xn = mol fraction of the nth substance listed; details: 81.5 kPa, Liquid; for viscosity: Capillary tube (Ostwald / Ubbelohde) method

CC(O)CO (stereo not drawn) [1,2-propanediol]
Details	refractive index
[1]	1.4323 ± 0.0007

[2]
Details	mass density [kg/m3]	viscosity [mPa·s]
298.15 K	1032.61 ± 0.24	–
303.15 K	1028.9 ± 0.23	33.88 ± 0.58
308.15 K	1025.16 ± 0.23	–

CC(O)CO (stereo not drawn) [1,2-propanediol] + CCO
[3]
Details	refractive index
x2 = 0.0738	1.426 ± 0.0008
x2 = 0.1285	1.4233 ± 0.0008
x2 = 0.2099	1.4187 ± 0.0008
x2 = 0.2725	1.4153 ± 0.0008
x2 = 0.3701	1.4093 ± 0.0008
x2 = 0.4389	1.4052 ± 0.0008
x2 = 0.5193	1.3998 ± 0.0008
x2 = 0.5871	1.3946 ± 0.0008
x2 = 0.678	1.3876 ± 0.0008
x2 = 0.7554	1.3817 ± 0.0008
x2 = 0.8185	1.3765 ± 0.0008
x2 = 0.9171	1.3672 ± 0.0008

[4]
Details	mass density, 298.15 K [kg/m3]	mass density, 303.15 K [kg/m3]	mass density, 308.15 K [kg/m3]	viscosity, 303.15 K [mPa·s]
x2 = 0.0492	1023.64 ± 0.22	1019.91 ± 0.21	1016.16 ± 0.21	–
x2 = 0.0738	–	–	–	25.01 ± 0.37
x2 = 0.122	1009.9 ± 0.19	1006.14 ± 0.19	1002.31 ± 0.18	–
x2 = 0.1285	–	–	–	20.47 ± 0.28
x2 = 0.2072	993.05 ± 0.18	989.22 ± 0.19	985.36 ± 0.19	–
x2 = 0.2099	–	–	–	15.2 ± 0.18
x2 = 0.2706	979.89 ± 0.2	976.03 ± 0.2	972.12 ± 0.21	–
x2 = 0.2725	–	–	–	12.14 ± 0.13
x2 = 0.3633	959.86 ± 0.22	955.92 ± 0.22	951.97 ± 0.23	–
x2 = 0.3701	–	–	–	8.55 ± 0.08
x2 = 0.4389	–	–	–	6.68 ± 0.06
x2 = 0.4478	940.7 ± 0.24	936.73 ± 0.25	932.7 ± 0.25	–
x2 = 0.5193	–	–	–	5.03 ± 0.04
x2 = 0.5261	921.85 ± 0.27	917.81 ± 0.27	913.76 ± 0.28	–
x2 = 0.5871	–	–	–	3.98 ± 0.03
x2 = 0.6103	900.63 ± 0.29	896.55 ± 0.3	892.41 ± 0.31	–
x2 = 0.677	882.99 ± 0.32	878.84 ± 0.32	874.69 ± 0.33	–
x2 = 0.678	–	–	–	2.9 ± 0.02
x2 = 0.7554	–	–	–	2.23 ± 0.02
x2 = 0.7613	859.54 ± 0.35	855.37 ± 0.35	851.13 ± 0.36	–
x2 = 0.8185	–	–	–	1.8 ± 0.01
x2 = 0.8332	838.49 ± 0.38	834.25 ± 0.38	829.99 ± 0.39	–
x2 = 0.9171	–	–	–	1.29 ± 0.01
x2 = 0.9232	810.57 ± 0.42	806.3 ± 0.42	801.98 ± 0.43	–

CC(O)CO (stereo not drawn) [1,2-propanediol] + CO
[3]
Details	refractive index
x2 = 0.0688	1.4262 ± 0.0008
x2 = 0.1545	1.422 ± 0.0008
x2 = 0.2606	1.4155 ± 0.0008
x2 = 0.3086	1.4129 ± 0.0008
x2 = 0.3666	1.4096 ± 0.0008
x2 = 0.4494	1.4029 ± 0.0008
x2 = 0.51	1.3983 ± 0.0008
x2 = 0.6098	1.3883 ± 0.0008
x2 = 0.6811	1.3783 ± 0.0008
x2 = 0.7687	1.3665 ± 0.0008
x2 = 0.8363	1.3571 ± 0.0008
x2 = 0.9225	1.3404 ± 0.0008

[4]
Details	mass density, 298.15 K [kg/m3]	mass density, 303.15 K [kg/m3]	mass density, 308.15 K [kg/m3]	viscosity, 303.15 K [mPa·s]
x2 = 0	1032.61 ± 0.24	1028.9 ± 0.23	1025.16 ± 0.23	–
x2 = 0.0533	1026.26 ± 0.22	1022.52 ± 0.22	1018.75 ± 0.21	–
x2 = 0.0688	–	–	–	25.51 ± 0.38
x2 = 0.1319	1016.21 ± 0.2	1012.45 ± 0.2	1008.64 ± 0.19	–
x2 = 0.1545	–	–	–	18.49 ± 0.24
x2 = 0.2246	1003.13 ± 0.18	999.31 ± 0.17	995.47 ± 0.18	–
x2 = 0.2606	–	–	–	12.31 ± 0.14
x2 = 0.282	994.24 ± 0.17	990.39 ± 0.18	986.48 ± 0.19	–
x2 = 0.3086	–	–	–	10.21 ± 0.11
x2 = 0.3666	–	–	–	8.11 ± 0.08
x2 = 0.3841	976.76 ± 0.19	972.84 ± 0.2	968.91 ± 0.21	–
x2 = 0.4494	–	–	–	5.81 ± 0.05
x2 = 0.4496	964.21 ± 0.21	960.26 ± 0.21	956.25 ± 0.22	–
x2 = 0.51	–	–	–	4.54 ± 0.04
x2 = 0.53	947.16 ± 0.23	943.12 ± 0.24	939.07 ± 0.24	–
x2 = 0.6083	928.51 ± 0.25	924.41 ± 0.26	920.25 ± 0.27	–
x2 = 0.6098	–	–	–	2.99 ± 0.02
x2 = 0.6811	–	–	–	2.21 ± 0.02
x2 = 0.7006	903.39 ± 0.29	899.17 ± 0.29	894.96 ± 0.3	–
x2 = 0.7601	884.96 ± 0.31	880.67 ± 0.32	876.35 ± 0.33	–
x2 = 0.7687	–	–	–	1.51 ± 0.01
x2 = 0.8363	–	–	–	1.11 ± 0.01
x2 = 0.8454	855.03 ± 0.35	850.61 ± 0.36	846.16 ± 0.37	–
x2 = 0.9133	827.35 ± 0.39	823.02 ± 0.4	818.45 ± 0.41	–
x2 = 0.9225	–	–	–	0.75 ± 0.01

CCO [ethanol]
Details	refractive index
[1]	1.3595 ± 0.0007

[2]
Details	mass density [kg/m3]	viscosity [mPa·s]
298.15 K	785.18 ± 0.45	–
303.15 K	780.87 ± 0.46	0.994 ± 0.009
308.15 K	776.52 ± 0.47	–

CCO [ethanol] + CC(O)CO
[4], x1 = 1
Details	mass density [kg/m3]
298.15 K	785.18 ± 0.45
303.15 K	780.87 ± 0.46
308.15 K	776.52 ± 0.47

CO [methanol]
Details	refractive index
[1]	1.327 ± 0.0007

[2]
Details	mass density [kg/m3]	viscosity [mPa·s]
298.15 K	786.57 ± 0.45	–
303.15 K	781.85 ± 0.46	0.525 ± 0.007
308.15 K	777.1 ± 0.47	–

CO [methanol] + CC(O)CO
[4], x1 = 1
Details	mass density [kg/m3]
298.15 K	786.57 ± 0.45
303.15 K	781.85 ± 0.46
308.15 K	777.1 ± 0.47

CO [methanol] + CCO
[3]
Details	refractive index
x1 = 0.0417	1.3567 ± 0.0008
x1 = 0.1476	1.3541 ± 0.0008
x1 = 0.2214	1.3522 ± 0.0008
x1 = 0.2952	1.3502 ± 0.0008
x1 = 0.3644	1.3485 ± 0.0008
x1 = 0.4488	1.3462 ± 0.0008
x1 = 0.529	1.3437 ± 0.0008
x1 = 0.5995	1.3415 ± 0.0008
x1 = 0.6859	1.3385 ± 0.0008
x1 = 0.7442	1.3363 ± 0.0008
x1 = 0.832	1.3328 ± 0.0008
x1 = 0.9166	1.3286 ± 0.0008

[4], 303.15 K
Details	viscosity [mPa·s]
x1 = 0.0417	0.968 ± 0.009
x1 = 0.1476	0.906 ± 0.008
x1 = 0.2214	0.865 ± 0.008
x1 = 0.2952	0.828 ± 0.008
x1 = 0.3644	0.793 ± 0.008
x1 = 0.4488	0.753 ± 0.008
x1 = 0.529	0.717 ± 0.008
x1 = 0.5995	0.685 ± 0.007
x1 = 0.6859	0.648 ± 0.007
x1 = 0.7442	0.624 ± 0.007
x1 = 0.832	0.588 ± 0.007
x1 = 0.9166	0.556 ± 0.007
